Assay results taken from patent publication US8809361B2, “2,3-dihydrofuro[2,3-c]pyridines, their use as modulators of the G-protein-coupled receptor GPR119 and pharmaceutical compositions thereof” (Boehringer Ingelheim International GmbH, priority 2012, dated 2014).

Target: T1, human GPR119 (Homo sapiens, UniProt Q8TDV5)
T1 construct: expression vector for human GPR119 cDNA (Acc. No. NP_848566); expressed in transfected cells
T1 sequence (Q8TDV5 1-335): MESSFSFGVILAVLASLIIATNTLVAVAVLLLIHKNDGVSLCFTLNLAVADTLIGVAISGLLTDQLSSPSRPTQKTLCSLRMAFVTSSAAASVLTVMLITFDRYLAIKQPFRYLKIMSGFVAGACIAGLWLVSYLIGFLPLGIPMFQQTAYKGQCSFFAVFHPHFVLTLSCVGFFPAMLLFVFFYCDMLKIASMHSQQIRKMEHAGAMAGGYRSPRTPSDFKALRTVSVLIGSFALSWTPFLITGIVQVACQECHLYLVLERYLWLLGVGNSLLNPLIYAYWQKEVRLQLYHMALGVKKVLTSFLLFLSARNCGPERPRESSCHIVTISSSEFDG
Experiment: GPR119 activation / intracellular cAMP stimulation, AlphaScreen cAMP Assay in Min-6/hGPR119 cells
Format: cell-based
Conditions: MIN6 cells stably transfected with human GPR119, 45 minutes incubation at room temperature
Method: The compounds of formula I according to the invention modulate the activity of the G-protein-coupled receptor GPR119. The effect of the compounds on the activation of GPR119 and on the stimulation of intracellular cAMP concentration is determined using the AlphaScreen cAMP Assay Kit (Cat. No. #6760625R) made by PerkinElmer.
MIN6 cells [Miyazaki J et al., Endocrinology. 1990 July; 127(1):126-32] are stably transfected with an expression vector for human GPR119 cDNA (Acc. No. NP_848566). Min-6/hGPR119 cells are cultured in DMEM, 10% FBS, 50 μM β-mercaptoethanol, 0.3 mg/mL Geniticin, 2 mM GlutaMAX at 37° C., 5% CO2. For the assay, the cells are seeded in Optiplates (white, 384-well, 160W-barcoded, TC, sterile with lid, Cat. No. #6007688 (Perkin Elmer); 10000 cells/well; 50 μL). The plates covered with lids are then incubated for 24 hours at 37° C., 5% CO2. After the medium is aspirated from the wells completely, 10 ill of the test compound are added, the compounds are diluted using stimulating buffer (140 mM NaCl, 3.6 mM KCl, 0.5 mM NaH2PO4, 0.5 mM MgSO4, 1.5 mM CaCl2, 10 mM Hepes, 5 mM NaHCO3; pH 7.4. 0.5 mM IBMX and 0.1% BSA, the final DMSO concentration is 1%). After 45 minutes incubation at room temperature (approx. 20° C.), the cAMP concentrations are determined using the AlphaScreen cAMP Assay Kit (Cat. No. #6760625R from PerkinElmer).

Molecule `CCCc1nc(N2CCC3(CC2)CC2(Cc4cc(C5=CCN(S(C)(=O)=O)CC5)ncc4O2)C3)no1` [Example 26, 5-(1-Methanesulfonyl-1,2,3,6-tetrahydro-pyridin-4-yl)-1″-(3-n-propyl-[1,2,4]oxadiazol-3-yl)-dispiro[2,3-dihydrofuro[2,3-c]pyridine-2,1′-cyclobutane-3′,4″-piperidine]] has an EC50 of 8 nM.

`CS(=O)(=O)N1CC=C(c2cc3c(cn2)OC2(C3)CC3(CCN(c4ncc(Cl)cn4)CC3)C2)CC1` [Example 9, 1″-(5-Chloro-pyrimidin-2-yl)-5-(1-methanesulfonyl-1,2,3,6-tetrahydro-pyridin-4-yl)-dispiro[2,3-dihydrofuro[2,3-c]pyridine-2,1′-cyclobutane-3′,4″-piperidine]] gave an EC50 of 6 nM.

Work on `CS(=O)(=O)N1CC=C(c2cc3c(cn2)OC2(C3)CC3(CCN(c4ccc(C(F)(F)F)cn4)CC3)C2)CC1` [Example 11, 5-(1-Methanesulfonyl-1,2,3,6-tetrahydro-pyridin-4-yl)-1″-(5-trifluoromethyl-pyridin-2-yl)-dispiro[2,3-dihydrofuro[2,3-c]pyridine-2,1′-cyclobutane-3′,4″-piperidine]] yielded an EC50 of 13 nM.

With `CS(=O)(=O)c1ccc(-c2cc3c(cn2)OC2(C3)CC3(CCN(CC4(C(F)(F)F)CC4)CC3)C2)cc1` [Example 5, 5-(4-Methylsulfonyl-phenyl)-1″-[(1-trifluoromethyl-cyclopropyl)-methyl]-dispiro[2,3-dihydrofuro[2,3-c]pyridine-2,1′-cyclobutane-3′,4″-piperidine]] the EC50 was 362 nM.

In the case of `CCCc1noc(N2CCC3(CC2)CC2(Cc4cc(C5=CCN(S(C)(=O)=O)CC5)ncc4O2)C3)n1` [Example 24, 5-(1-Methanesulfonyl-1,2,3,6-tetrahydro-pyridin-4-yl)-1″-(3-n-propyl-[1,2,4]oxadiazol-5-yl)-dispiro[2,3-dihydrofuro[2,3-c]pyridine-2,1′-cyclobutane-3′,4″-piperidine]], the EC50 is reported as 10 nM.

`Cc1cnc(N2CCC3(CC2)CC2(Cc4cc(-c5ccc(S(C)(=O)=O)cc5)ncc4O2)C3)nc1` [Example 7, 1″-(5-Methyl-pyrimidin-2-yl)-5-(4-methylsulfonyl-phenyl)-dispiro[2,3-dihydrofuro[2,3-c]pyridine-2,1′-cyclobutane-3′,4″-piperidine]] showed an EC50 of 42 nM.

`CCc1cnc(N2CCC3(CC2)CC2(Cc4cc(C5=CCN(S(C)(=O)=O)CC5)ncc4O2)C3)nc1` [Example 28, 1″-(5-Ethyl-pyrimidin-2-yl)-5-(1-methanesulfonyl-1,2,3,6-tetrahydro-pyridin-4-yl)-dispiro[2,3-dihydrofuro[2,3-c]pyridine-2,1′-cyclobutane-3′,4″-piperidine]] showed an EC50 of 11 nM.

Molecule `CC(C)(C)OC(=O)N1CCC2(CC1)CC1(Cc3cc(N4CCN(S(C)(=O)=O)CC4)ncc3O1)C2` [Example 21, 5-(4-Methanesulfonyl-piperazin-1-yl)-1″-tert-butoxycarbonyl-dispiro[2,3-dihydrofuro[2,3-c]pyridine-2,1′-cyclobutane-3′,4″-piperidine]] has an EC50 of 77 nM.

`CC(C)(C)OC(=O)N1CCC2(CC1)CC1(Cc3cc(-c4ccc(S(C)(=O)=O)cc4C#N)ncc3O1)C2` [Example 31, 5-(2-Cyano-4-methylsulfonyl-phenyl)-1″-tert-butoxycarbonyl-dispiro[2,3-dihydrofuro[2,3-c]pyridine-2,1′-cyclobutane-3′,4″-piperidine]] showed an EC50 of 5 nM.

In the case of `CC(C)(C)OC(=O)N1CCC2(CC1)CC1(Cc3cc(C4=CCN(S(C)(=O)=O)CC4)ncc3O1)C2` [Example 2, 5-(1-Methanesulfonyl-1,2,3,6-tetrahydro-pyridin-4-yl)-1″-tert-butoxycarbonyl-dispiro[2,3-dihydrofuro[2,3-c]pyridine-2,1′-cyclobutane-3′,4″-piperidine]], the EC50 is reported as 50 nM.

Molecule `CSc1ccc(-c2cc3c(cn2)OC2(C3)CC3(CCN(C(=O)OC(C)(C)C)CC3)C2)c(C#N)c1` [Example 30, 5-(2-Cyano-4-methylsulfanyl-phenyl)-1″-tert-butoxycarbonyl-dispiro[2,3-dihydrofuro[2,3-c]pyridine-2,1′-cyclobutane-3′,4″-piperidine]] has an EC50 of 14 nM.

`C[C@@H](OC(=O)N1CCC2(CC1)CC1(Cc3cc(C4=CCN(S(C)(=O)=O)CC4)ncc3O1)C2)C(F)(F)F` [Example 33, 5-(1-Methanesulfonyl-1,2,3,6-tetrahydro-pyridin-4-yl)-1″-[(R)-2,2,2-trifluoro-1-methyl-ethyloxycarbonyl]-dispiro[2,3-dihydrofuro[2,3-c]pyridine-2,1′-cyclobutane-3′,4″-piperidine]] gave an EC50 of 8 nM.

With `CS(=O)(=O)N1CC=C(c2cc3c(cn2)OC2(C3)CC3(CCN(c4nnc(C(F)(F)F)s4)CC3)C2)CC1` [Example 20, 5-(1-Methanesulfonyl-1,2,3,6-tetrahydro-pyridin-4-yl)-1″-(5-trifluoromethyl-[1,3,4]thiadiazol-2-yl)-dispiro[2,3-dihydrofuro[2,3-c]pyridine-2,1′-cyclobutane-3′,4″-piperidine]] the EC50 was 10 nM.

With `CS(=O)(=O)N1CC=C(c2cc3c(cn2)OC2(C3)CC3(CCN(c4ncc(C(F)(F)F)cn4)CC3)C2)CC1` [Example 32, 5-(1-Methanesulfonyl-1,2,3,6-tetrahydro-pyridin-4-yl)-1″-(5-trifluoromethyl-pyrimidin-2-yl)-dispiro[2,3-dihydrofuro[2,3-c]pyridine-2,1′-cyclobutane-3′,4″-piperidine]] the EC50 was 6 nM.

Molecule `CC(C)c1nc(N2CCC3(CC2)CC2(Cc4cc(C5=CCN(S(C)(=O)=O)CC5)ncc4O2)C3)no1` [Example 25, 1″-(5-Isopropyl-[1,2,4]oxadiazol-3-yl)-5-(1-methanesulfonyl-1,2,3,6-tetrahydro-pyridin-4-yl)-dispiro[2,3-dihydrofuro[2,3-c]pyridine-2,1′-cyclobutane-3′,4″-piperidine]] has an EC50 of 5 nM.

With `CC(C)(C)OC(=O)N1CCC2(CC1)CC1(Cc3cc(-c4ccc(CS(C)(=O)=O)cc4)ncc3O1)C2` [Example 18, 5-(4-Methylsulfonylmethyl-phenyl)-1″-tert-butoxycarbonyl-dispiro[2,3-dihydrofuro[2,3-c]pyridine-2,1′-cyclobutane-3′,4″-piperidine]] the EC50 was 24 nM.

With `CC(C)(C)OC(=O)N1CCC2(CC1)CC1(Cc3cc(-c4ccc(C#N)cc4F)ncc3O1)C2` [Example 14, 5-(4-Cyano-2-fluoro-phenyl)-1″-tert-butoxycarbonyl-dispiro[2,3-dihydrofuro[2,3-c]pyridine-2,1′-cyclobutane-3′,4″-piperidine]] the EC50 was 60 nM.

In the case of `CC(C)(C)OC(=O)N1CCC2(CC1)CC1(Cc3cc(-c4ccc(S(C)(=O)=O)nc4)ncc3O1)C2` [Example 13, 5-(6-Methanesulfonyl-pyridin-3-yl)-1″-tert-butoxycarbonyl-dispiro[2,3-dihydrofuro[2,3-c]pyridine-2,1′-cyclobutane-3′,4″-piperidine]], the EC50 is reported as 42 nM.

Molecule `CS(=O)(=O)N1CC=C(c2cc3c(cn2)OC2(C3)CC3(CCN(c4ncc(C5CC5)cn4)CC3)C2)CC1` [Example 17, 1″-(5-Cyclopropyl-pyrimidin-2-yl)-5-(1-methanesulfonyl-1,2,3,6-tetrahydro-pyridin-4-yl)-dispiro[2,3-dihydrofuro[2,3-c]pyridine-2,1′-cyclobutane-3′,4″-piperidine]] has an EC50 of 9 nM.
